Patent US9045525B2, “Amyloid β-protein-specific production-inhibiting polypeptide” (THE DOSHISHA, priority 2012, dated 2015)
Peptide text beside a SMILES is read from it.

What was measured:
[1] = molecular target: β-secretase against APP (APP-EQ-FLAG) (Homo sapiens, UniProt P05067); assay: β-Secretase activity inhibition experiment in vitro, APP-EQ-FLAG substrate; format: biochemical
Method: A solution containing the polypeptide having APP (APP-EQ-FLAG: SEQ ID NO: 18) as shown in FIG. 5(A) was prepared in such a manner that its final concentration was 50 nM.
To this solution, 9-7 polypeptide, 6-5 polypeptide, #1 polypeptide, #2 polypeptide, #3 polypeptide, #4 polypeptide, #5 polypeptide, #6 polypeptide, #7 polypeptide, #8 polypeptide, #9 polypeptide, and #10 polypeptide were added in such a manner that each solution had the final concentration of 50 μM, followed by reacting with 50 μL β-secretase (0.02 U/μL) for 4 hours. The reaction temperature was 37° C. As a negative control experiment, DMSO was used in place of the 12 types of polypeptides mentioned above.
After completion of the reaction, each sample was subjected to Western blotting using a monoclonal antibody (82E-1) that specifically recognizes the N terminal of APP-EQ-FLAG as shown in FIG. 5(A). Thereafter, the amount of Aβ33-FLAG protein separated by β-secretase was measured.
An experiment was conducted in the same manner as Experimental Example 4 described above except that S4 and #4 polypeptides were used as the polypeptide and the amounts of these polypeptides added were adjusted so that the final concentrations were 1, 5, 10, 20, 50, and 100 μM.

[2] = tested on: Notch transiently expressed in CHO-K1 cells (7WD10 cells); assay: Cleavage of Notch protein (NICD) in 7WD10 cells; format: cell-based; conditions: polypeptide 1, 5, 10, 20, and 50 μM
Method: (§1) An experiment was conducted wherein #1, #2, and #4 polypeptides were reacted with CHO-K1 cells (7WD10 cells) that stably expressed APP protein and transiently expressed Notch to confirm the production of Aβ protein and cleavage of Notch protein.

Aβ in the cerebrum = assay: Intraperitoneal administration to mouse, Aβ in cerebrum; format: in vivo; conditions: 150 mg/kg intraperitoneally, three consecutive days, wild-type mice
Method: 150 mg/kg #4 polypeptide dissolved in DMSO was intraperitoneally administered to ten wild-type mice (C57 BL/6 N Cr Slc, seven weeks old). The administration was conducted for three consecutive days. Four days after, the mice were euthanized to extract the cerebrum.
The extracted cerebrums were dissolved by using a known method, subjected to immunoprecipitation with anti-4G8 antibody, and then subjected to Western blotting using the anti-mouse Aβ antibody. An experiment was conducted in the same manner except that only DMSO was administered as the negative control experiment group (ten mice).
In the Western blotting, an experiment was conducted using 5, 10, 50, 100, and 200 pg rodent-originated Aβ as the standard reference material. FIG. 10(A−1) and […] show the results.

[3] = tested on: CHO-K1 cells (7WD10 cells) that stably expressed APP protein; assay: Aβ protein production inhibition experiment in 7WD10 cells (sAPPβ, βCTF, Aβ); format: cell-based; conditions: polypeptide 1, 5, 10, 20, and 50 μM
Method: as §1

[4] = molecular target: γ-secretase against βCTF (C99-FLAG) (Homo sapiens, UniProt P05067); assay: γ-Secretase activity inhibition experiment in vitro, C99-FLAG substrate; format: biochemical; conditions: polypeptide 50 μM, 4 hours, 37° C., Western blotting
Method: A polypeptide having βCTF (C99-FLAG: SEQ ID NO: 16) and mouse-derived Notch protein having a FLAG peptide at the C-terminal side (modification of NCBI Accession No. Q01705.2; SEQ ID NO: 17; hereunder referred to as “Notch”) shown in FIG. 2(A) were each made into a solution having a final concentration of 50 nM.
To these solutions, 9-7 polypeptide, 6-5 polypeptide, #1 polypeptide, #2 polypeptide, #3 polypeptide, and #4 polypeptide were added in such a manner that the final concentrations were 50 μM, followed by reacting with 50 μL of CHAPSO-solubilized membrane fraction (γ-secretase-containing fraction) for 4 hours. The reaction temperature was 37° C. As a negative control experiment, DMSO was used in place of the six types of polypeptides described above.
Each sample after completion of the reaction was measured in the following manner. As shown in FIG. 2(A), a sample using C99-FLAG was subjected to Western blotting using a monoclonal antibody (82E-1) that specifically recognizes the N terminal of C99-FLAG, and the amount of Aβ40 protein produced by the cleavarage by γ-secretase was measured. In contrast, the reaction sample using Notch-FLAG was subjected to Western blotting using an anti-FLAG monoclonal antibody, and the amount of NICD produced to the separete by γ-secretase was also measured. FIG. 2(B) and FIG. 2(C) show the results.
An experiment was conducted in the same manner as in Experimental Example 1 described above, except that only #1 polypeptide was used and the amount of #1 polypeptide was selected so that the final concentrations were 0.5, 1, 5, 10, 20, and 50 μM.
An experiment was conducted in the same manner as in Experimental Example 1 described above, except that S4 polypeptide was used as the polypeptide, and each addition amount was set in such a manner that the final concentrations were 1, 5, 10, 20, and 50 μM. In this Experimental Example, #4 polypeptide was added in such a manner that the final result was 50 μM.

[5] = molecular target: T1, APP in 7WD10 cells overexpressing APP (Homo sapiens, UniProt P05067); assay: Analysis of subcellular distribution in 7WD10 cells; format: cell-based; conditions: Biotin-modified #4 polypeptide
T1 construct: expressed in transfected cells; host or cells: 7WD10
Method: Biotin-modified #4 polypeptide was prepared using a known method. This polypeptide was allowed to react with CHO-K1 cells and the 7WD10 cells mentioned above, and the resulting cells were immobilized, and then treated with Triton X-100. Thereafter, avidin-modified Alexa488 was reacted with the above. As the negative control experiment, an experiment was conducted reacting avidin-modified Alexa 488 in place of Biotin-modified #4 polypeptide.

CHO-K1 cells = assay: Mouse Aβ production inhibition experiment, CHO-K1 cells; format: cell-based; conditions: polypeptide 20 μM, CHO-K1 cells expressing mouse-type APP, anti-mouse Aβ antibody Western blotting
Method: #1, #2, and #4 polypeptides were added to the culture solutions of CHO-K1 cells and Neuro 2A cells (N2A) in such a manner that the final concentration was 20 μM. As a control, L685458 (i.e., a γ-secretase inhibitor) and DMSO were added thereto in such a manner that the final concentration was 20 μM.
Thereafter, Aβ contained in the cell culture medium was identified by using a Western-blotting method with an antibody (anti-mouse Aβ antibody) that recognizes Aβ. […] In the figure, L indicates L685458, which is a γ-secretase inhibitor (final concentration of 1 μM).

Compound: CC[C@H](C)[C@H](NC(=O)[C@H](CC(=O)O)NC(=O)[C@@H](NC(=O)[C@@H](NC(=O)[C@H](CS)NC(=O)[C@H](Cc1ccc(O)cc1)NC(=O)[C@H](CS)NC(=O)[C@H](CC(=O)O)NC(=O)[C@H](CS)NC(=O)[C@@H](NC(=O)[C@@H](NC(=O)[C@H](CC(C)C)NC(=O)[C@H](Cc1c[nH]cn1)NC(=O)[C@H](CCSC)NC(C)=O)C(C)C)[C@@H](C)CC)[C@@H](C)O)[C@@H](C)O)C(=O)N[C@@H](CS)C(=O)N[C@@H](Cc1ccc(O)cc1)C(=O)N[C@@H](CS)C(=O)N[C@@H](Cc1ccc(O)cc1)C(=O)N[C@@H](CO)C(=O)N[C@@H](CS)C(=O)N[C@H](C(=O)N1CCC[C@H]1C(=O)N[C@@H](CC(N)=O)C(N)=O)[C@@H](C)O [#4] (Ac-MHLVICDCYCTTDICYCYSCTPN-NH2)
- cleavage activity of β-secretase against APP (Aβ33-FLAG) ([1]; polypeptide 50 μM, 4 hours, 37° C., Western blotting): inhibit the cleavage activity of β-secretase against APP more intensely
- cleavage activity of β-secretase against APP ([1]; polypeptide 1, 5, 10, 20, 50, and 100 μM): inhibited the cleavage activity of β-secretase against APP in a concentration-dependent manner
- abundance of the NICD in the cell lysate [2]: not decreased
- Aβ production inhibition (bands quantified with densitometry) (Aβ in the cerebrum): excellent Aβ production inhibition effect
- bands indicating Aβ in the cerebrum (Western blotting) (Aβ in the cerebrum; compared to DMSO): the number of bands indicating Aβ was reduced
- Aβ protein in the cell culture medium (released Aβ) [3]: decreased depending on the concentration
- Aβ protein in the cell lysate (intracellular Aβ) [3]: no longer present in a manner dependent on the final concentration
- sAPP in the cell lysate [3]: no longer present in a manner dependent on the final concentration
- βCTF (C99) in the cell lysate [3]: no longer present in a manner dependent on the final concentration
- cleavage activity of γ-secretase against βCTF (Aβ40 from C99-FLAG) [4]: inhibited more cleavage activity of γ-secretase against βCTF
- entry into cells ([5]; CHO-K1 and 7WD10 cells): entering the cells
- binding to intracellular APP ([5]; avidin-modified Alexa488, 7WD10 cells overexpressing APP): remarkably binded also to the intracellular APP
- production of Aβ in the culture medium (CHO-K1 cells): the production of Aβ in the culture medium was reduced
